{
  "source": "paper PMC6913127",
  "about": "“Structures of MERS1, the 5′ processing enzyme of mitochondrial mRNAs in Trypanosoma brucei” (RNA, 2020)",
  "molecules": {"B1": {"name": "fluoresceinated MERS2 peptide F-SVSKQAVCLMERHLRRVPGARRNELKVALSKELKER (peptide)", "peptide": "fluorescein-SVSKQAVCLMERHLRRVPGARRNELKVALSKELKER", "notes": "MERS2, T. brucei, 946 residue pentatricopeptide repeat protein; limits worked out from that motif; also called MER2 peptide"}, "B2": {"name": "DNA control (dsDNA)", "DNA 1": "GTGAGTACTCAC", "DNA 2": "GTGAGTACTCAC"}},
  "key": {"[1]": {"test_system": "T. brucei MERS1 (residues 37–395)", "experiment": "FP peptide binding to MERS1", "set-up": "species or system Trypanosoma brucei", "conditions": "25 mM Tris HCl pH 7.5, 5% (v/v) glycerol, 150 mM NaCl, 1 nM fluoresceinated peptide (Fig. 4B)", "source_text": "We considered that the bound helix provided from crystal packing might mimic a portion of MERS2 or MERS3 that interacts with MERS1. Thus, using the MERS1-peptide contacts we derived a consensus MERS1-peptide interacting motif, (M/L)XXALXXEL and probed the MERS2 and MERS3 sequences for similar motifs. While no homology was found between the sequence and that of MERS3, one strong match for the motif was located within the central PPR motif region of MERS2 (residues 394–402). This region is predicted to be helical and contain a PPR motif in MERS2. Attempts to purify MERS2 or a MERS2 truncation containing this PPR motif for binding analyses, however, were unsuccessful. Thus, we obtained a fluoresceinated peptide encompassing this MERS2 region, F-[…] (where underlined residues correspond to the peptide consensus residues) and utilized this peptide in FP binding studies. […] However, to test whether helical residues observed in the crystal to make contact to MERS1 are involved in binding, we obtained a fluoresceintated peptide in which the first leucine and the glutamic acid in the helix were substituted to prolines (F-[…]).\nFor structural studies, the nucleotides encoding residues 37–395 of MERS1 were cloned into pET15b between the BamHI and NdeI restriction sites. […]"}, "[2]": {"test_system": "T. brucei MERS1 (residues 37–395)", "experiment": "Fluorescence polarization (FP) RNA/DNA binding to MERS1", "set-up": "species or system Trypanosoma brucei", "conditions": "25 mM Tris HCl pH 7.5, 5% (v/v) glycerol, 50 mM NaCl; for Binding to MERS1, result in words: 25°C, 1 nM fluoresceinated RNA or DNA", "source_text": "We next used FP binding studies to assess RNA binding by purified MERS1. […] We next probed the importance of specific nucleotides in the RNA binding site by performing FP studies on mutant forms of the RNA site.\nFor structural studies, the nucleotides encoding residues 37–395 of MERS1 were cloned into pET15b between the BamHI and NdeI restriction sites. E. coli C41(DE3) cells were transformed with the expression plasmid and protein expression was induced by addition of isopropyl β-D-1-thiogalactopyranoside (IPTG) to a final concentration of 0.5 mM for 4 h at 37°C when the cells had reached an A600 of 0.4–0.6. The cells were reconstituted in 25 mM Tris HCl pH 7.5, 300 mM NaCl, 5% glycerol, 0.5 mM β-mercaptoethanol and lysed with a microfluidizer. The expressed MERS1 protein was found in the soluble fraction and was purified using nickel-nitrilotriacetic acid (Ni-NTA) column chromatography. The protein was further purified by Superdex 75 size exclusion column (SEC) chromatography. MERS1 mutants were made using the Quikchange mutagenesis protocol and expressed and purified as per the WT protein.\nFP experiments were performed using a PanVera Beacon 2000 FP system at 25°C ([Lundblad et al. 1996]). For the experiments, purified proteins were titrated into 0.990 mL buffer composed of 25 mM Tris HCl pH 7.5, 5% (v/v) glycerol and 50 mM NaCl and containing 1 nM (final concentration) fluoresceintly labeled RNA substrate, 5′-GAGAGGGGGUU-3′, or DNA, 5′-GTGAGTACTCAC-3′. Data were fit using KaleidaGraph. Each binding curve is a representative curve from two to three technical replicates. Mutant RNA sites tested were 5′-AAGAGGGGGUU-3′ (Supplemental Fig. S2), 5′-GGGAGGGGGUU-3′, 5′-GAAAGGGGGUU-3′, 5′-GAGGGGGGGUU-3′, 5′-GAGAAGGGGUU-3′, 5-GAGAGAGGGUU-3′, 5′-GAGAGGAGGUU-3′ and 5′-GAGAGGGAGUU-3′."}, "[3]": {"target": "T1, MERS1 (Trypanosoma brucei brucei TREU927, UniProt B6SBM0 37-395)", "T1 sequence": "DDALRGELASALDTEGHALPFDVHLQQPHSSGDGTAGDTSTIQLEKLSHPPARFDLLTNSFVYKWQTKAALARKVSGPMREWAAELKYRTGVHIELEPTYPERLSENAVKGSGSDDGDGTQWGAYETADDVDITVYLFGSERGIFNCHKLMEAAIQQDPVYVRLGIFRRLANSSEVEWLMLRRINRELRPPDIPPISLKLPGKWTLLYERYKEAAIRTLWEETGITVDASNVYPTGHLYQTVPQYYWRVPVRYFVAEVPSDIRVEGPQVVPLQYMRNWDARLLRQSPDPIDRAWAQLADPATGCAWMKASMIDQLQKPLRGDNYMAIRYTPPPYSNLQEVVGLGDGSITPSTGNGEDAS", "experiment": "fluorescence polarization; FP: 25 mM Tris HCl pH 7.5, 50 mM NaCl, 5% (v/v) glycerol, 1 nM labeled RNA or DNA, 25 C", "conditions": "protein: recombinant, tags: N-terminal His tag (pET15b, linker LVPRGSM); for Kd: single-stranded"}, "[4]": {"target": "T2, T. brucei MERS1(37–395), his-tagged (Trypanosoma brucei brucei TREU927, UniProt B6SBM0 37-395)", "T2 construct": "MERS1, Trypanosoma brucei, 395 residues; A selenomethionine-substituted form was used for phasing of the GTP crystal; also called mitochondrial edited mRNA stability factor 1; WT MERS1; source: E. coli C41(DE3), pET15b, purified (Ni-NTA, Superdex 75 SEC); not shown: His tag, N-terminal, kept", "T2 sequence": "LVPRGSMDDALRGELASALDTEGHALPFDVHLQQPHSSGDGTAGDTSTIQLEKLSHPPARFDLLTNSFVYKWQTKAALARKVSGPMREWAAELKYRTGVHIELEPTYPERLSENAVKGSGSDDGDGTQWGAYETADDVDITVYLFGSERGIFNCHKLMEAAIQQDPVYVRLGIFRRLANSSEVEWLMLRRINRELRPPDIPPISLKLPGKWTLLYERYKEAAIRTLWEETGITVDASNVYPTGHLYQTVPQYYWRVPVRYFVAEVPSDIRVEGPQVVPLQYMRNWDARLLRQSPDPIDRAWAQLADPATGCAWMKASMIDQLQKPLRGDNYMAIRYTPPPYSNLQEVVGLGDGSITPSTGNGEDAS", "experiment": "fluorescence polarisation; purified MERS1 titrated into 1 nM fluoresceinated peptide; 25 mM Tris HCl pH 7.5, 5% (v/v) glycerol, 150 mM NaCl", "conditions": "both partners purified"}, "[5]": {"target": "T1, MERS1", "experiment": "fluorescence polarization; Results text prints the 12-mer; Methods and Fig. 5 print this 11-mer; FP: 25 mM Tris HCl pH 7.5, 50 mM NaCl, 5% (v/v) glycerol, 1 nM labeled RNA or DNA, 25 C", "conditions": "protein: recombinant; tags: N-terminal His tag (pET15b, linker LVPRGSM); single-stranded"}, "[6]": {"target": "T1, MERS1", "experiment": "X-ray crystallography; 2.60 A; four nucleotides resolved per subunit; FP: 25 mM Tris HCl pH 7.5, 50 mM NaCl, 5% (v/v) glycerol, 1 nM labeled RNA or DNA, 25 C", "conditions": "protein: recombinant; tags: N-terminal His tag (pET15b, linker LVPRGSM); single-stranded"}},
  "note": "No end group written: not given here.",
  "data": [
    {"molecule": "F-SVSKQAVCLMERHLRRVPGARRNELKVAPSKPLKER [peptide in which the first leucine and the glutamic acid in the helix were substituted to prolines]", "values": [
      {"measurement": "Peptide binding to MERS1, result in words", "setting": "[1]", "value": "only weak binding"}
    ]},
    {"molecule": "5′-GAGAGAGGGUU-3′ (RNA, backbone not given here)", "values": [
      {"measurement": "Binding to MERS1, result in words", "setting": "[2]", "value": "did not bind saturably"}
    ]},
    {"molecule": "5′-GAGAGGGGGGUU-3′: RNA binding site; also used for the MERS1–RNA crystal structure (RNA, backbone not given here)", "values": [
      {"measurement": "Kd", "setting": "[2]; PanVera Beacon 2000, 25°C, 1 nM fluoresceinated RNA, MERS1 titrated, ± standard error, representative of at least three technical replicates (Fig. 5B)", "value": "40 ± 0.9", "unit": "nM"}
    ]},
    {"molecule": "F-MSNNALDRLINKQKPKVPPRNDVVSESVSN [another fluoresceinated peptide that lacked the consensus residues, reference compound]", "values": [
      {"measurement": "Peptide binding to MERS1, result in words", "setting": "[1]", "value": "failed to interact"}
    ]},
    {"molecule": "5′-GAGAGGGAGUU-3′ (RNA, backbone not given here)", "values": [
      {"measurement": "Binding to MERS1, result in words", "setting": "[2]", "value": "did not bind saturably"}
    ]},
    {"molecule": "5′-GAGAGGGGGUU-3′: fluoresceintly labeled RNA substrate (RNA, backbone not given here; fluorescein label)", "values": [
      {"measurement": "Binding to MERS1, result in words", "setting": "[2]", "value": "binds MERS1 with high affinity"}
    ]},
    {"molecule": "5′-GTGAGTACTCAC-3′: DNA site used as comparison in FP binding (DNA, backbone and methylation of C not given here; further chemistry not fully specified) [reference compound]", "values": [
      {"measurement": "Binding to MERS1, result in words", "setting": "[2]", "value": "essentially no binding"},
      {"measurement": "Binding to MERS1, result in words", "setting": "[2]; listed as DNA", "value": "no binding"}
    ]},
    {"molecule": "5′-GAGAGGAGGUU-3′ (RNA, backbone not given here)", "values": [
      {"measurement": "Binding to MERS1, result in words", "setting": "[2]", "value": "did not bind saturably"}
    ]},
    {"molecule": "GGGAGGGGGUU (ssRNA)", "note": "[RNA A2G]", "values": [
      {"measurement": "Kd", "setting": "[3]; label: fluorescein", "value": "48 ± 0.9", "unit": "nM"}
    ]},
    {"molecule": "GAAAGGGGGUU (ssRNA)", "note": "[RNA G3A]", "values": [
      {"measurement": "Kd", "setting": "[3]; label: fluorescein", "value": "78 ± 4", "unit": "nM"}
    ]},
    {"molecule": "B1", "values": [
      {"measurement": "Kd", "setting": "[4]", "value": 2500, "unit": "nM"}
    ]},
    {"molecule": "GAGAGGGGGUU (ssRNA)", "note": "[WT RNA site (11-mer, FP)]", "values": [
      {"measurement": "Kd", "setting": "[5]", "value": "40 ± 0.9", "unit": "nM"}
    ]},
    {"molecule": "B2", "values": [
      {"measurement": "binding result", "setting": "[3]; label: fluorescein, self-complementary 12-mer, blunt if duplex", "value": "no binding"}
    ]},
    {"molecule": "GAGAAGGGGUU (ssRNA)", "note": "[RNA G5A]", "values": [
      {"measurement": "Kd", "setting": "[3]; label: fluorescein", "value": "43 ± 5", "unit": "nM"}
    ]},
    {"molecule": "AAGAGGGGGUU (ssRNA)", "note": "[RNA G1A]", "values": [
      {"measurement": "Kd", "setting": "[3]; label: 5' fluorescein", "value": "39 ± 4", "unit": "nM"}
    ]},
    {"molecule": "GAGAGGGGGGUU (ssRNA)", "note": "[RNA 12-mer (crystal)]", "values": [
      {"measurement": "binding result", "setting": "[6]", "value": "binds"}
    ]},
    {"molecule": "GAGGGGGGGUU (ssRNA)", "note": "[RNA A4G]", "values": [
      {"measurement": "Kd", "setting": "[3]; label: fluorescein", "value": "47 ± 5", "unit": "nM"}
    ]}
  ]
}
